Measured values from ChEMBL document CHEMBL1201862, “PubChem BioAssay data set” (2004).
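Dose response: 5 concentrations. Exposure: 48 h. Format: 96-well plates. Endpoint: linear interpolation; highest concentration if not reached. GI50: concentration for 50% inhibition of growth.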 The source made the active and inactive calls. Cut-off read from the data, not from the text of the source: active = GI50 up to about 1.1 µM and inactive = higher.

Tests used:
Assay in all cases: NCI tumour cell line growth inhibition, 48 h
MOLT-4 = tested on: MOLT-4
HCC 2998 = tested on: HCC 2998
SNB-75 = tested on: SNB-75
SF-295 = tested on: SF-295
PC-3 = tested on: PC-3
K562 = tested on: K562
CCRF-CEM = tested on: CCRF-CEM
SNB-19 = tested on: SNB-19
ACHN = tested on: ACHN
HCT-116 = tested on: HCT-116
Hs-578T = tested on: Hs-578T
OVCAR-3 = tested on: OVCAR-3
DU-145 = tested on: DU-145
SF-268 = tested on: SF-268
MCF7 = tested on: MCF7
OVCAR-5 = tested on: OVCAR-5
M14 = tested on: M14
786-0 = tested on: 786-0
LOX IMVI = tested on: LOX IMVI
HOP-92 = tested on: HOP-92

`Clc1cccc(Cl)c1C1SCc2nc3cc4ccccc4cc3n21` (configuration not stated) was tested, and the GI50 (MOLT-4) was > 100 µM (inactive), the GI50 (HCC 2998) was > 100 µM (inactive) and the GI50 (SNB-75) was > 100 µM (inactive). The GI50 (SF-295) was > 100 µM (inactive), the GI50 (PC-3) was > 100 µM (inactive) and the GI50 (K562) was > 100 µM (inactive). For the same molecule, the GI50 (CCRF-CEM) was > 100 µM (inactive), the GI50 (SNB-19) was > 100 µM (inactive) and the GI50 (ACHN) was > 100 µM (inactive). The GI50 (HCT-116) was > 100 µM (inactive), the GI50 (Hs-578T) was > 100 µM (inactive) and the GI50 (OVCAR-3) was > 100 µM (inactive). For the same molecule, the GI50 (DU-145) was > 100 µM (inactive), the GI50 (SF-268) was > 100 µM (inactive) and the GI50 (MCF7) was > 100 µM (inactive). The GI50 (OVCAR-5) was > 100 µM (inactive), the GI50 (M14) was > 100 µM (inactive) and the GI50 (786-0) was > 100 µM (inactive).

`Cc1ccc(S(=O)(=O)Oc2nc3nc4ccccc4nc3nc2OS(=O)(=O)c2ccc(C)cc2)cc1` was tested, and the GI50 (HCC 2998) was > 100 µM (inactive), the GI50 (SNB-75) was > 100 µM (inactive) and the GI50 (SF-295) was > 100 µM (inactive). For the same molecule, the GI50 (PC-3) was > 100 µM (inactive), the GI50 (CCRF-CEM) was 5.28 µM (inactive) and the GI50 (SNB-19) was > 100 µM (inactive). For the same molecule, the GI50 (ACHN) was > 100 µM (inactive), the GI50 (HCT-116) was > 100 µM (inactive) and the GI50 (Hs-578T) was > 100 µM (inactive). For the same molecule, the GI50 (OVCAR-3) was > 100 µM (inactive), the GI50 (DU-145) was > 100 µM (inactive) and the GI50 (SF-268) was > 100 µM (inactive). For the same molecule, the GI50 (MCF7) was > 100 µM (inactive), the GI50 (OVCAR-5) was > 100 µM (inactive) and the GI50 (M14) was > 100 µM (inactive). The GI50 (786-0) was > 100 µM (inactive).

For `O=C1c2ccccc2NC(=O)C2C1C(c1ccccc1)CC2(O)c1ccccc1` (configuration not stated), the GI50 (MOLT-4) was 15.4 µM (inactive), the GI50 (HCC 2998) was 67 µM (inactive) and the GI50 (SNB-75) was 0.0128 µM (active). The GI50 (SF-295) was 43.6 µM (inactive), the GI50 (PC-3) was 18 µM (inactive) and the GI50 (CCRF-CEM) was 27.7 µM (inactive). For the same molecule, the GI50 (LOX IMVI) was 43.2 µM (inactive), the GI50 (SNB-19) was 35.2 µM (inactive) and the GI50 (ACHN) was 37 µM (inactive). The GI50 (HCT-116) was 16.9 µM (inactive), the GI50 (HOP-92) was 9.89 µM (inactive) and the GI50 (Hs-578T) was 34.5 µM (inactive). The GI50 (OVCAR-3) was 31.6 µM (inactive), the GI50 (DU-145) was > 100 µM (inactive) and the GI50 (SF-268) was > 100 µM (inactive). The GI50 (MCF7) was > 100 µM (inactive), the GI50 (OVCAR-5) was > 100 µM (inactive) and the GI50 (M14) was 60.5 µM (inactive). For the same molecule, the GI50 (786-0) was 69.5 µM (inactive).

For `CC(C)C1OC(/C=C/c2ccccc2)OCC1(C)C` (configuration not stated), the GI50 (HCC 2998) was 19.6 µM (inactive), the GI50 (SNB-75) was 26.9 µM (inactive) and the GI50 (SF-295) was 31 µM (inactive). The GI50 (PC-3) was 37.1 µM (inactive), the GI50 (K562) was 25.4 µM (inactive) and the GI50 (CCRF-CEM) was 20.9 µM (inactive). The GI50 (LOX IMVI) was 18.9 µM (inactive), the GI50 (SNB-19) was 41.4 µM (inactive) and the GI50 (ACHN) was 32.2 µM (inactive). For the same molecule, the GI50 (HCT-116) was 25.4 µM (inactive), the GI50 (HOP-92) was 17.9 µM (inactive) and the GI50 (Hs-578T) was 22.8 µM (inactive). The GI50 (OVCAR-3) was 20.4 µM (inactive), the GI50 (DU-145) was 37.2 µM (inactive) and the GI50 (SF-268) was 33 µM (inactive). For the same molecule, the GI50 (MCF7) was 31.8 µM (inactive), the GI50 (OVCAR-5) was 44.5 µM (inactive) and the GI50 (M14) was 36.2 µM (inactive). The GI50 (786-0) was 37.1 µM (inactive).

In the case of `Cc1c(C=C(C#N)C#N)c(=O)n(C)c(=O)n1C`, the GI50 (MOLT-4) is reported as 95.3 µM (inactive), the GI50 (SNB-75) is reported as > 100 µM (inactive) and the GI50 (SF-295) is reported as > 100 µM (inactive). For the same molecule, the GI50 (PC-3) was > 100 µM (inactive), the GI50 (K562) was > 100 µM (inactive) and the GI50 (CCRF-CEM) was 19.6 µM (inactive). For the same molecule, the GI50 (LOX IMVI) was > 100 µM (inactive), the GI50 (SNB-19) was > 100 µM (inactive) and the GI50 (ACHN) was > 100 µM (inactive). The GI50 (HCT-116) was > 100 µM (inactive), the GI50 (HOP-92) was > 100 µM (inactive) and the GI50 (Hs-578T) was > 100 µM (inactive). The GI50 (OVCAR-3) was > 100 µM (inactive), the GI50 (DU-145) was > 100 µM (inactive) and the GI50 (SF-268) was > 100 µM (inactive). For the same molecule, the GI50 (MCF7) was > 100 µM (inactive), the GI50 (OVCAR-5) was > 100 µM (inactive) and the GI50 (M14) was > 100 µM (inactive). The GI50 (786-0) was > 100 µM (inactive).

With `Cc1ccc(-c2nc3cc([N+](=O)[O-])ccc3[nH]2)cc1` the GI50 (MOLT-4) was 47.4 µM (inactive), the GI50 (HCC 2998) was 43.4 µM (inactive) and the GI50 (SNB-75) was > 100 µM (inactive). For the same molecule, the GI50 (SF-295) was 63 µM (inactive), the GI50 (PC-3) was 38.9 µM (inactive) and the GI50 (K562) was 59.3 µM (inactive). The GI50 (CCRF-CEM) was 39.6 µM (inactive), the GI50 (LOX IMVI) was 80.5 µM (inactive) and the GI50 (SNB-19) was > 100 µM (inactive). The GI50 (ACHN) was 53 µM (inactive), the GI50 (HCT-116) was 89.9 µM (inactive) and the GI50 (HOP-92) was > 100 µM (inactive). The GI50 (Hs-578T) was > 100 µM (inactive), the GI50 (OVCAR-3) was 67.5 µM (inactive) and the GI50 (DU-145) was 82.8 µM (inactive). For the same molecule, the GI50 (SF-268) was > 100 µM (inactive), the GI50 (MCF7) was > 100 µM (inactive) and the GI50 (M14) was > 100 µM (inactive). For the same molecule, the GI50 (786-0) was > 100 µM (inactive).

`c1ccc(C(CCN2CCCC2)c2ccccn2)cc1` (configuration not stated) was tested, and the GI50 (HCC 2998) was > 100 µM (inactive), the GI50 (SNB-75) was > 100 µM (inactive) and the GI50 (SF-295) was > 100 µM (inactive). The GI50 (PC-3) was > 100 µM (inactive), the GI50 (K562) was > 100 µM (inactive) and the GI50 (LOX IMVI) was > 100 µM (inactive). The GI50 (SNB-19) was > 100 µM (inactive), the GI50 (ACHN) was > 100 µM (inactive) and the GI50 (HCT-116) was > 100 µM (inactive). The GI50 (HOP-92) was > 100 µM (inactive), the GI50 (Hs-578T) was > 100 µM (inactive) and the GI50 (DU-145) was > 100 µM (inactive). The GI50 (SF-268) was > 100 µM (inactive), the GI50 (MCF7) was > 100 µM (inactive) and the GI50 (OVCAR-5) was > 100 µM (inactive). For the same molecule, the GI50 (M14) was > 100 µM (inactive) and the GI50 (786-0) was > 100 µM (inactive).
